Results from patent US8778926B2, “Compounds, pharmaceutical compositions and uses thereof” (Boehringer Ingelheim International GmbH, priority 2011, dated 2014).

Target: T1, human GPR119 (Homo sapiens, UniProt Q8TDV5)
T1 construct: expression vector for human GPR119 cDNA (Acc. No. NP_848566); expressed in transfected cells
T1 sequence (Q8TDV5 1-335): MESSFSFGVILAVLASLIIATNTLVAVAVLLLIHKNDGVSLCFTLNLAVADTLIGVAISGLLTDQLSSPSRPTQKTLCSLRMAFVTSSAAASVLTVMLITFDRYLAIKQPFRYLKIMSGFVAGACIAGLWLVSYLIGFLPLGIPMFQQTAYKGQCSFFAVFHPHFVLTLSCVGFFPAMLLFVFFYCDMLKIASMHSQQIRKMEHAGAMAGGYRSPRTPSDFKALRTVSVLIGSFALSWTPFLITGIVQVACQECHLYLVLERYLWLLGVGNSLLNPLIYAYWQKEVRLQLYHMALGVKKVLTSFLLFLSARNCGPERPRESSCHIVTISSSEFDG
Test: AlphaScreen cAMP assay, activation of GPR119 in Min-6/hGPR119 cells
Format: cell-based
Conditions: MIN6 cells stably transfected with human GPR119; intracellular cAMP; 45 minutes incubation at room temperature
Protocol: The compounds of formula I according to the invention modulate the activity of the G-protein-coupled receptor GPR119. The effect of the compounds on the activation of GPR119 and on the stimulation of intracellular cAMP concentration is determined using the AlphaScreen cAMP Assay Kit (Cat. No. #6760625R) made by PerkinElmer.
MIN6 cells [Miyazaki J et al. Endocrinology. 1990 July; 127(1):126-32] are stably transfected with an expression vector for human GPR119 cDNA (Acc. No. NP_848566). Min-6/hGPR119 cells are cultured in DMEM, 10% FBS, 500 μM β-mercaptoethanol, 0.3 mg/mL Geniticin, 2 mM GlutaMAX at 37° C. 5% CO2. For the assay, the cells are seeded in Optiplates (white, 384-well, 160 W— barcoded, TC, sterile with lid, Cat. No. #6007688 (Perkin Elmer); 10000 cells/well; 50 μl). The plates covered with lids are then incubated for 24 hours at 37° C./5% CO2. After the medium is aspirated from the wells completely, 10 μl of the test compound are added, the compounds are diluted using stimulating buffer (140 mM NaCl, 3.6 mM KCl, 0.5 mM NaH2PO4, 0.5 mM MgSO4, 1.5 mM CaCl2, 10 mM Hepes, 5 mM NaHCO3; pH 7.4. 0.5 mM IBMX and 0.1% BSA, the final DMSO concentration is 1%). After 45 minutes incubation at room temperature (approx. 20° C.), the cAMP concentrations are determined using the AlphaScreen cAMP Assay Kit (Cat. No. #6760625R from PerkinElmer).

EC50	Compound
9 nM	CC(C)c1noc(N2CCC([C@]3(C)Cc4cc(-c5ccc(S(C)(=O)=O)cc5)ncc4O3)CC2)n1 (single isomer, unassigned) [Example 26]
15 nM	CCCc1noc(N2CCC([C@]3(C)Cc4cc(-c5ccc(S(C)(=O)=O)cc5)ncc4O3)CC2)n1 (single isomer, unassigned) [Example 27]
22 nM	CCc1cnc(N2CCC([C@]3(C)Cc4cc(-c5ccc(S(C)(=O)=O)cc5)ncc4O3)CC2)nc1 (single isomer, unassigned) [Example 28]
51 nM	CC(C)(C)c1noc(N2CCC([C@]3(C)Cc4cc(-c5ccc(S(C)(=O)=O)cc5)ncc4O3)CC2)n1 (single isomer, unassigned) [Example 29]
4 nM	CCc1cnc(N2CCC([C@@H]3Cc4cc(C5=CCN(S(C)(=O)=O)CC5)ncc4O3)CC2)nc1 (single isomer, unassigned) [Example 30]
3 nM	CCc1cnc(N2CCC([C@H]3Cc4cc(C5=CCN(S(C)(=O)=O)CC5)ncc4O3)CC2)nc1 (single isomer, unassigned) [Example 31]
29 nM	Cc1cnc(N2CCC([C@@H]3Cc4cc(C5=CCN(S(C)(=O)=O)CC5)ncc4O3)CC2)nc1 (single isomer, unassigned) [Example 32]
6 nM	Cc1cnc(N2CCC([C@H]3Cc4cc(C5=CCN(S(C)(=O)=O)CC5)ncc4O3)CC2)nc1 (single isomer, unassigned) [Example 33]
3 nM	C[C@@]1(C2CCN(c3ncc(C(F)(F)F)cn3)CC2)Cc2cc(C3=CCN(S(C)(=O)=O)CC3)ncc2O1 (single isomer, unassigned) [Example 35]
5 nM	CCc1cnc(N2CCC([C@]3(C)Cc4cc(C5=CCN(S(C)(=O)=O)CC5)ncc4O3)CC2)nc1 (single isomer, unassigned) [Example 36]
6 nM	C[C@@]1(C2CCN(c3ccc(C(F)(F)F)cn3)CC2)Cc2cc(C3=CCN(S(C)(=O)=O)CC3)ncc2O1 (single isomer, unassigned) [Example 37]
14 nM	C[C@@]1(C2CCN(c3cnc(C(F)(F)F)cn3)CC2)Cc2cc(C3=CCN(S(C)(=O)=O)CC3)ncc2O1 (single isomer, unassigned) [Example 38]
2 nM	C[C@@]1(C2CCN(c3ncc(C(F)(F)F)cc3F)CC2)Cc2cc(C3=CCN(S(C)(=O)=O)CC3)ncc2O1 (single isomer, unassigned) [Example 40]
6 nM	Cc1cnc(N2CCC([C@]3(C)Cc4cc(C5=CCN(S(C)(=O)=O)CC5)ncc4O3)CC2)nc1 (single isomer, unassigned) [Example 41]
11 nM	CC(C)c1noc(N2CCC([C@]3(C)Cc4cc(C5=CCN(S(C)(=O)=O)CC5)ncc4O3)CC2)n1 (single isomer, unassigned) [Example 42]
9 nM	CC(C)c1nc(N2CCC([C@]3(C)Cc4cc(C5=CCN(S(C)(=O)=O)CC5)ncc4O3)CC2)no1 (single isomer, unassigned) [Example 43]
6 nM	CCCc1nc(N2CCC(C3Cc4cc(C5=CCN(S(C)(=O)=O)CC5)ncc4O3)CC2)no1 (single isomer, unassigned) [Example 44]
13 nM	CC(C)c1nc(N2CCC([C@H]3Cc4cc(C5=CCN(S(C)(=O)=O)CC5)ncc4O3)CC2)no1 (single isomer, unassigned) [Example 45]
18 nM	CC(C)c1nc(N2CCC([C@@H]3Cc4cc(C5=CCN(S(C)(=O)=O)CC5)ncc4O3)CC2)no1 (single isomer, unassigned) [Example 46]
6 nM	CCCc1nc(N2CCC([C@]3(C)Cc4cc(C5=CCN(S(C)(=O)=O)CC5)ncc4O3)CC2)no1 (single isomer, unassigned) [Example 47]
12 nM	CC1(C2CCN(c3nnc(C(F)(F)F)s3)CC2)Cc2cc(C3=CCN(S(C)(=O)=O)CC3)ncc2O1 (single isomer, unassigned) [Example 48, 5-(1-Methanesulfonyl-1,2,3,6-tetrahydro-pyridin-4-yl)-2-methyl-2-[1-(5-trifluoromethyl-[1,3,4]thiadiazol-2-yl)-piperidin-4-yl]-2,3-dihydro-furo[2,3-c]pyridine]
25 nM	CCCc1nc(N2CCC([C@@H]3Cc4cc(C5=CCN(S(C)(=O)=O)CC5)ncc4O3)CC2)no1 (single isomer, unassigned) [Example 49]

EC50	Compound
5 nM	CC(C)(C)c1nc(N2CCC([C@H]3Cc4cc(C5=CCN(S(C)(=O)=O)CC5)ncc4O3)CC2)no1 (single isomer, unassigned) [Example 50]
7 nM	CC(C)(C)c1nc(N2CCC([C@@H]3Cc4cc(C5=CCN(S(C)(=O)=O)CC5)ncc4O3)CC2)no1 (single isomer, unassigned) [Example 51]
19 nM	CS(=O)(=O)N1CC=C(c2cc3c(cn2)O[C@H](C2CCN(c4ncc(C(F)(F)F)cn4)CC2)C3)CC1 (single isomer, unassigned) [Example 52]
20 nM	Cc1cnc(N2CCC([C@]3(C)Cc4cc(C5=CCN(S(C)(=O)=O)CC5)ncc4O3)CC2)cn1 (single isomer, unassigned) [Example 53]
16 nM	CC(C)c1noc(N2CCC([C@@H]3Cc4cc(C5=CCN(S(C)(=O)=O)CC5)ncc4O3)CC2)n1 (single isomer, unassigned) [Example 55]
36 nM	CC1(c2nc(N3CCC([C@@H]4Cc5cc(C6=CCN(S(C)(=O)=O)CC6)ncc5O4)CC3)no2)CC1 (single isomer, unassigned) [Example 57]
3 nM	CS(=O)(=O)N1CC=C(c2cc3c(cn2)O[C@@H](C2CCN(c4ncc(C(F)(F)F)cn4)CC2)C3)CC1 (single isomer, unassigned) [Example 79]
5 nM	CS(=O)(=O)N1CC=C(c2cc3c(cn2)O[C@@H](C2CCN(c4cnc(C(F)(F)F)cn4)CC2)C3)CC1 (single isomer, unassigned) [Example 80]
10 nM	CS(=O)(=O)N1CC=C(c2cc3c(cn2)O[C@@H](C2CCN(c4nnc(C(F)(F)F)s4)CC2)C3)CC1 (single isomer, unassigned) [Example 81]
3 nM	CS(=O)(=O)N1CC=C(c2cc3c(cn2)O[C@@H](C2CCN(c4ccc(C(F)(F)F)cn4)CC2)C3)CC1 (single isomer, unassigned) [Example 82]
3 nM	CS(=O)(=O)N1CC=C(c2cc3c(cn2)O[C@@H](C2CCN(c4ncc(Cl)cn4)CC2)C3)CC1 (single isomer, unassigned) [Example 83]
2 nM	CS(=O)(=O)N1CC=C(c2cc3c(cn2)O[C@@H](C2CCN(c4ncc(C(F)(F)F)cc4F)CC2)C3)CC1 (single isomer, unassigned) [Example 84]
7 nM	CCc1cnc(N2CCC([C@H]3Cc4cc(-c5ccc(S(C)(=O)=O)cc5)ncc4O3)CC2)nc1 (single isomer, unassigned) [Example 85]
12 nM	CS(=O)(=O)N1CC=C(c2cc3c(cn2)O[C@H](C2CCN(c4ncc(Cl)cn4)CC2)C3)CC1 (single isomer, unassigned) [Example 86]
13 nM	CS(=O)(=O)c1ccc(-c2cc3c(cn2)O[C@@H](C2CCN(c4ncc(Cl)cn4)CC2)C3)cc1 (single isomer, unassigned) [Example 87]
59 nM	C[C@]1(C2CCN(c3ncc(Cl)cn3)CC2)Cc2cc(C3=CCN(S(C)(=O)=O)CC3)ncc2O1 (single isomer, unassigned) [Example 88]
16 nM	C[C@@]1(C2CCN(c3ncc(C4CC4)cn3)CC2)Cc2cc(-c3ccc(S(C)(=O)=O)cc3)ncc2O1 (single isomer, unassigned) [Example 89]
60 nM	CS(=O)(=O)c1ccc(-c2cc3c(cn2)O[C@H](C2CCN(c4ncc(Cl)cn4)CC2)C3)cc1 (single isomer, unassigned) [Example 90]
3 nM	CS(=O)(=O)N1CC=C(c2cc3c(cn2)O[C@@H](C2CCN(c4ncc(C5CC5)cn4)CC2)C3)CC1 (single isomer, unassigned) [Example 91]
10 nM	COc1cnc(N2CCC([C@H]3Cc4cc(C5=CCN(S(C)(=O)=O)CC5)ncc4O3)CC2)nc1 (single isomer, unassigned) [Example 92]
10 nM	CS(=O)(=O)c1ccc(-c2cc3c(cn2)O[C@@H](C2CCN(c4ncc(C5CC5)cn4)CC2)C3)cc1 (single isomer, unassigned) [Example 93]
18 nM	COc1cnc(N2CCC([C@H]3Cc4cc(-c5ccc(S(C)(=O)=O)cc5)ncc4O3)CC2)nc1 (single isomer, unassigned) [Example 94]
